How the values were obtained:
BJ = experiment: CTG viability assay (CellTiter-Glo, 72 h); type: cell-based, human; details: for EC50: Homo sapiens, BJ, CellTiter-Glo, 72 h, non-cancerous cells
Procedure: (§1) All human cell lines were incubated at 37 °C in a 5% CO2 atmosphere and maintained under sterile conditions. Cells were tested for Mycoplasma (Lonza, Alpharetta, GA, USA) using the manufacturer’s conditions prior to experiments. Cell lines were purchased from American Type Culture Collection (ATCC, Manassas, VA, USA) or Leibniz-Institute Deutsche Sammlung von Mikroorganismen und Zellkulturen GmbH (DSMZ, Braunschweig, Germany) and cultured without antibiotics unless stated. Leukemia cells were cultured in RPMI and supplemented with 10% fetal bovine serum (FBS, Hyclone, Logan, UT, USA). SUP-B15, and KOPN-8 lines were cultured in RPMI supplemented with 10% FBS (Hyclone), 1% GlutaMAX™, 1% Pen/Step, and 0.1% β-mercaptoethanol. BJ cells were cultured in EMEM media supplemented with 10% FBS (Hyclone). Breast cancer cells (MDA-MB-231 & SUM149) were cultured in DMEM and Ham’s F12 respectively, supplemented with 10% FBS, 1% GlutaMAX™, 1% Pen/Step, and 2 µM cortisol/1 µg/mL insulin for SUM149. Both cells were grown to 80% confluence densities as recommended by ATCC. PBMCs were supplemented with concanavalin-A (5 μg/mL) and IL-2 (50 U/ml). To test general cytotoxicity, the following cell numbers were used for 384 well plates: KOPN-8 (ACC 552, infant human B cell precursor acute lymphoblastic leukemia with MLL-MLLt1/ENL fusion, 1000 cells/well), SUP-B15 (ACC389, human B cell precursor acute lymphoblastic leukemia of pediatric second relapse carrying the ALL-variant (m-bcr) of BCR-ABL1 fusion gene (e1-a2), 1600 cells/well), NALM-06 (DSMZ ACC128, non-T/non-B ALL at relapse with P15INK4B and P16INK4A deletions, 1200 cells/well), UoC-B1 (pediatric BCP-ALL at second relapse with TCF3/E2A-HFL fusion, 1000 cells/well), BJ (CRL-2522, normal human foreskin fibroblast cells, 400 cells/well) and PBMCs (periphery blood monocyte cells from healthy donors, IBC#BDC046, 10,000 cells/well).
(§2) Cytotoxicity evaluation was performed using the CellTiter-Glo Luminescent Cell Viability Assay kit (G7570, Promega, Madison, WI, USA), according to the manufacturer’s instructions. Briefly, the cell concentrations used were experimentally determined to ensure logarithmic growth during the 72-h duration of the experiment, and avoid adverse effects on cell growth by DMSO exposure. 1 × 10^3–4.8 × 10^3 or 4 × 10^2–1.2 × 10^3 cells/well were seeded in 96 or 384-well white flat-bottomed plates (3610 or 8804BC, Corning, Corning, NY, USA) in 100 µL or 30 µL/well, respectively. The plates were incubated at 37 °C in 5% CO2 for 24 h before drugging. Test compounds (10 mM in DMSO) in nine 3-fold serial dilutions were dispensed via pintool (Biomek liquid handler, Beckman, Indianapolis, USA) to assay plates. The final concentration of DMSO was 0.3% (v/v) in each well. The positive controls included staurosporine (10 μM), and gambogic acid (10 μM). The plates were incubated for 72 h at 37 °C in 5% CO2, then quenched with CellTiter-Glo® (Promega, Madison, WI, USA, 50 µL/96 or 30 µL/384), centrifuged at 1000 rpm for 1 min and incubated at RT for 20 min. Luminescence was recorded with a plate reader (Envision, Perkin Elmer, Waltham, MA, USA). The mean luminescence of each experimental treatment group was normalized as a percentage of the mean intensity of untreated controls. EC50 values were calculated by Pipeline Pilot software (Accelrys, Enterprise Platform, San Diego, CA, USA).

SUP-B15 = experiment: CTG viability assay (CellTiter-Glo, 72 h); type: cell-based, human
Procedure: as §1, §2

KOPN-8 = experiment: CTG viability assay (CellTiter-Glo, 72 h); type: cell-based; details: Homo sapiens, mean ± SEM of triplicates
Procedure: as §1, §2

NALM-06 = experiment: CTG viability assay (CellTiter-Glo, 72 h); type: cell-based; details: Homo sapiens, mean ± SEM of triplicates
Procedure: as §1, §2

PBMC = experiment: CTG viability assay (CellTiter-Glo, 72 h); type: cell-based; details: Homo sapiens, non-cancerous cells
Procedure: as §1, §2

UoC-B1 = experiment: CTG viability assay (CellTiter-Glo, 72 h); type: cell-based; details: Homo sapiens, mean ± SEM of triplicates
Procedure: as §1, §2

Aqueous solubility = type: physicochemical; details: physiological pH (7.40), compared to controls
Description: (§3) To gain further information regarding intracellular compound localization, studies were extended to include a marker for the ER (Figure 8). The staining pattern for the individual probes are shown in Figure 8A (ER), Figure 8B (Lysosome) and Figure 8D (probe 9a). […] Moreover, when all three channels were merged, white specks were observed, indicating co-localization of probe 9a with cellular structures that are stained by both ER and lysosomal marker dyes (Figure 8F). […] These mechanisms provide a plausible explanation for the lower potency of compound 9 compared to compound 10. Finally, in vitro ADME (absorption, distribution, metabolism, and elimination) profiles were evaluated for compounds 9 and 10 to compare with the obtained cellular data (Supplementary Material, Figure S10). The aqueous solubility properties at physiological pH (7.40) of compounds 9 and 10 were good compared to controls. […] The combined findings indicate that the steric-effects of the hydroxysuccinate appendage of compound 10 renders it less prone to degradation by lysosomal activity or other competing cellular removal mechanisms.

[1] = Simulated gastric fluid (SGF) stability; type: in vitro ADME; details: read-out: SGF stability t1/2
Description: as §3

[2] = Metabolic stability in liver microsomes; type: in vitro ADME; details: for half-life: read-out: metabolic stability t1/2
Description: as §3

[3] = caco-2 permeability assay; type: in vitro ADME; details: human, read-out: efflux ratio, B2A/A2B
Description: as §3

SUM149 = experiment: Propidium iodide (PI) assay, 48 h; details: SUM149, 48 h, 3 µM
Procedure: The first step was to evaluate if the compounds display cytotoxicity against the adherent cells. Propidium iodide (PI) assay was performed for the drug resistant solid tumor cellular models (triple negative breast cancer models: SUM149 and MDA-MB-231) for 48 h (Figure 5) [30, 31].

half-life [1] | half-life ([2]; human liver microsomes) | half-life ([2]; mouse liver microsomes) | Compound | EC50 (BJ) | EC50 (SUP-B15; Homo sapiens, SUP-B15, mean ± SEM of triplicates) | EC50 (KOPN-8) | EC50 (NALM-06) | EC50 (PBMC) | EC50 (UoC-B1) | aqueous solubility (Aqueous solubility) | half-life ([1]; simulated gi fluid) | metabolic stability t1/2 ([2]; human liver microsomes) | metabolic stability t1/2 ([2]; mouse liver microsomes) | efflux ratio [3] | reduction of cell viability (SUM149) | activity against BJ (BJ; at the highest tested concentration (43.3 µM)) | EC50 (SUP-B15; Homo sapiens, SUP-B15, 72 h, mean ± SEM of triplicates) | EC50 (SUP-B15; mean ± SEM of triplicates)
– | – | – | COC1=C[C@]23CCCN2CCc2cc4c(cc2[C@@H]3[C@@H]1O)OCO4 [Compound 9, cephalotaxine] | > 43.3 µM | 10.4 ± 0.75 µM | 23.1 ± 5.2 µM | 9.5 ± 2.7 µM | > 83 µM | 17.6 ± 5.8 µM | good | > 33 h | rapidly degraded | rapidly degraded | ~2 | 50% | – | – | –
> 33 h | ≥ 1 h | ≥ 1 h | COC(=O)C[C@](O)(CCCC(C)(C)O)C(=O)O[C@@H]1C(OC)=C[C@]23CCCN2CCc2cc4c(cc2[C@H]13)OCO4 [Compound 10, homoharringtonine, reference compound] | > 43.3 µM | – | 0.0799 ± 0.01 µM | 0.0322 ± 0.01 µM | 6.35 µM | 0.0129 ± 0.002 µM | good | – | – | – | < 1 | – | no observable activity | 0.0452 µM | 0.045 ± 0.005 µM
